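These data come from cells grown in 96-well plates and exposed to compound for 48 hours at five concentrations. GI50 is the concentration that inhibits growth by half. TGI is the concentration that stops growth completely.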 Where a SMILES comes first, the peptide text is derived from it. The star is where a group is joined. Trt = c1ccc(C(c2ccccc2)(c2ccccc2)*)cc1; Cbz = O=C(OCc1ccccc1)*
Experiments:
Assay in all cases: growth of human tumour cells (NCI), 48 h
PC-3 prostate = test system: PC-3 prostate
NCI-H522 lung = test system: NCI-H522 lung
LOX IMVI melanoma = test system: LOX IMVI melanoma
EKVX NSCLC = test system: EKVX NSCLC
CAKI-1 renal = test system: CAKI-1 renal
A498 renal = test system: A498 renal
HOP-92 NSCLC = test system: HOP-92 NSCLC
HS 578T breast = test system: HS 578T breast
CCRF-CEM leukemia = test system: CCRF-CEM leukemia
OVCAR-4 ovarian = test system: OVCAR-4 ovarian

| Compound | TGI (PC-3 prostate) | TGI (NCI-H522 lung) | TGI (LOX IMVI melanoma) | TGI (EKVX NSCLC) | TGI (CAKI-1 renal) | TGI (A498 renal) | TGI (HOP-92 NSCLC) | TGI (HS 578T breast) | TGI (CCRF-CEM leukemia) | GI50 (PC-3 prostate) | GI50 (OVCAR-4 ovarian) | TGI (OVCAR-4 ovarian) | GI50 (NCI-H522 lung) | GI50 (LOX IMVI melanoma) | GI50 (EKVX NSCLC) | GI50 (CAKI-1 renal) | GI50 (A498 renal) | GI50 (HOP-92 NSCLC) | GI50 (HS 578T breast) | GI50 (CCRF-CEM leukemia) |
| --- | --- | --- | --- | --- | --- | --- | --- | --- | --- | --- | --- | --- | --- | --- | --- | --- | --- | --- | --- | --- |
| Cc1ccc(CNc2ccc(Br)cc2)cc1 | > 100 µM | 43.9 µM | > 100 µM | > 100 µM | > 100 µM | > 100 µM | 65.3 µM | > 100 µM | 78.4 µM |  |  |  |  |  |  |  |  |  |  |  |
| CCOC(=O)c1c(-c2ccccc2)[n+](=O)c2cc(Cl)c(Cl)cc2n1[O-] | 62.1 µM | > 100 µM | 2.91 µM | 34.5 µM | 3.2 µM | 33.9 µM | 4.6 µM | 49.9 µM |  | 0.769 µM | 2.48 µM | 6.62 µM | 14.2 µM | 1.56 µM | 17.6 µM | 1.64 µM | 18.4 µM | 2.09 µM | 20.1 µM |  |
| COc1cc2c(c(OC)c1OC)-c1ccc(NN(C(=O)c3ccccc3)C(=O)c3ccccc3)c(=O)cc1[C@@H](NC(C)=O)CC2 (tested in a mixture with another compound) | > 100 µM | 6.18 µM | 16.5 µM | > 100 µM | 47.1 µM | 52 µM | > 100 µM | 6.3 µM | > 100 µM | 4.69 µM | 7.06 µM | > 100 µM | 2.01 µM | 4.24 µM | 8.09 µM | 4.62 µM | 3.78 µM | 3.84 µM | 1.9 µM | 3.57 µM |
| COc1cc(-c2cc(/C=C/C(=O)c3ccc(F)c(F)c3)[nH]n2)cc(OC)c1OC | 5.72 µM | 4.48 µM | 12.2 µM |  | > 100 µM | 7.13 µM |  | 36.8 µM | 47.2 µM | 1.66 µM | 2.2 µM | 71.7 µM | 1.57 µM | 3.18 µM |  | 2.98 µM | 2.11 µM |  | 3.58 µM | 3.08 µM |
| CO[C@H]1C[C@@H]2CC[C@@H](C)[C@@](O)(O2)C(=O)C(=O)N2CCCC[C@H]2C(=O)O[C@H]([C@H](C)C[C@@H]2CC[C@@H](OC(=O)C(C)(CO)CO)[C@H](OC)C2)CC(=O)[C@H](C)/C=C(\C)[C@@H](O)[C@@H](OC)C(=O)[C@H](C)C[C@H](C)\C=C/C=C/C=C/1C | > 10 µM | > 10 µM | > 10 µM | > 10 µM | > 10 µM |  | > 8.98 µM | > 10 µM | > 10 µM | 0.00144 µM | < 0.001 µM | > 10 µM | 0.444 µM | 0.00435 µM | 0.00167 µM | 0.0352 µM | 0.00187 µM | 0.00141 µM | 0.00133 µM | 0.0368 µM |
| CCCn1c2c(c3ccccc3c1=O)C(=O)c1ccccc1-2 | > 100 µM | 39.6 µM | > 100 µM | > 100 µM | > 100 µM | > 100 µM | > 100 µM | > 100 µM | > 100 µM |  |  | > 100 µM |  |  |  |  |  |  |  |  |
| COC(=O)C(CO)NC(=O)C(CSC(c1ccccc1)(c1ccccc1)c1ccccc1)NC(=O)OCc1ccccc1 (stereo unspecified) (Cbz-Cys(Trt)-Ser-OMe; configuration not given here) | 27.4 µM | 34.3 µM | 30.1 µM | 41.1 µM | 39.4 µM |  | 29.8 µM | 47.9 µM | 7.63 µM |  |  | > 50.2 µM |  |  |  |  |  |  |  |  |

From PubChem BioAssay (NCI)
